{"source": "patent US20240299328A1", "about": "“COMPOSITIONS COMPRISING 15-HEPE AND METHODS OF TREATING AND/OR PREVENTING HEMATOLOGIC DISORDERS AND RELATED DISEASES” (Afimmune Limited, priority 2023, published 2024)", "key": {"[1]": {"system": "humanized sickle cell (SS) mice exposed to H/R stress", "assay": "Humanized SCD (SS) mice exposed to hypoxia/reoxygenation (H/R) stress: blood, flow cytometry, immunoblot", "assay_type": "in vivo", "experimental": "Animals and design of the study: Experiments were performed on 4-5 months-old sex matched healthy control (Hba^tm1(HBA) Tow Hbb^tm3(HBG1, HBB) Tow) and SCD (Hba^tm1(HBA)Tow Hbb^tm2(HBG1.HBB*)Tow) mice. The study used 4-5 months-old mice. The sickle cell related organ damage is not so severe to generate confounding factors when the impact of H/R induced stress is evaluated. This is also corroborated by the observation of Kasztan M et al who show gender-related differences in kidney function of humanized SCD mice becoming significant after 24 weeks (6 months) of age. The size of the mouse groups was established based on studies with the same mouse model for SCD generated by us and other labs. Mice were randomly assigned to the different treatment groups and analysis. Healthy and SS mice were treated with ether vehicle (hydroxypropyl methyl cellulose, HPMC, 0.5%) or Epeleuton in HPMC 0.5% (1000 mg/kg/day) administrated by gavage for 6 weeks. […] When indicated, mice underwent a hypoxia/reoxygenation stress (H/R): 10 hours hypoxia (8% oxygen) followed by 3 hours reoxygenation (21% oxygen) to mimic acute vaso-occlusive crisis as previously described. Whole blood and organs were collected from each mouse under isoflurane anesthesia. Organs were immediately removed and divided into two portions which were either immediately frozen in liquid nitrogen or fixed in 10% formalin and embedded in paraffin for histology. Hematological parameters were evaluated with a Sysmex XN-1000 Hematology Analyzer and red cell morphology was evaluated as previously reported. Biochemical assays were performed using standard biochemical assays, as previously reported. Plasmatic Pentraxin 2 and CCL-2 and CXCL-2 were measured respectively using the Mouse Pentraxin 2/SAP Quantikine ELISA Kit and the next generation ELISA kit according to the manufacturer's instruction.\nImmunoblot analysis: Packed red cells were lysed in ice-cold phosphate lysis buffer (5 mM Na2HPO4, pH 8.0, containing protease inhibitor cocktail tablets, 3 mM benzamidine final concentration, 1 mM Na3VO4 final concentration) and centrifuged 10 min at 4° C. at 12,000 g. Red cell membrane (ghost) and cytosol fractions were obtained as previously reported. Frozen lung, kidney and aorta from each studied group were homogenized and lysed with iced lyses buffer (150 mM NaCl, 25 mM bicine, 0.1% SDS, 2% Triton X-100, 1 mM EDTA, protease inhibitor cocktail tablets, 1 mM Na3VO4 final concentration) then centrifuged 30 min at 4° C. at 12,000 g. Specific antibodies used are: anti Phospho-Tyrosine (clone PY99 from SCBT, Santa Cruz, CA (dilution 1:3000, 75 μg loaded) and clone 4G10 from Merck KGaA, Darmstadt, Germany (dilution 1:1600, 75 μgr loaded)); anti Phospho (Ser536) NF-kB p65 (dilution 1:1000, 75 μg loaded) and anti NF-kB p65 (clone C22B4) (dilution 1:1000, 75 μgr loaded) from Cell Signaling Technology (Danvers, MA, USA); anti-NLRP3/NALP3 from Vinci-Biochem Srl, Vinci, Italy (dilution 1:1000, 75 μgr loaded); anti Endothelin-1 (ET-1) form AbCam, Cambridge, UK (dilution 1:1000, 75 μgr loaded); anti VCAM-1 (R and D Systems, Minneapolis, MN, USA (dilution 1:1000, 40 μgr loaded)); anti ICAM-1 (clone EP1442Y, dilution 1:1000, 75 μgr loaded, AbCam, Cambridge, UK); anti TXAS-1 (Cayman, Ann Arbor, MI, USA); anti Nrf2-phospho-S40 (Clone EP1809Y, dilution 1:1000, 75 μgr loaded, AbCam, Cambridge, UK); anti-Nrf2 (dilution 1:1000, 75 μgr loaded, AbCam, Cambridge, UK); anti Nqo1 from Santa Cruz Biotechnology, Inc, CA, USA (clone C-19; dilution 1:1000, 75 μgr/μl loaded); anti-heme oxygenase 1(HO-1) form SCBT (Santa Cruz, CA, USA (dilution 1:1000, 50 μgr loaded); E-selectin (H-300) (dilution 1:1000, 75 μgr loaded); anti GAPDH from SCBT (Santa Cruz, CA, USA (dilution 1:5000, 50 μgr loaded)); anti Actin from SCBT (Santa Cruz, CA, USA (clone 2A3, dilution 1:1000, 50 μgr/loaded)). […]"}, "BDL-operated mice": {"system": "BDL-operated mice", "assay_type": "in vivo", "experimental": "BDL Surgery: On Day 0 of the study, BDL surgery was performed under pentobarbital anesthesia. The mouse's hair was first shaved, the abdominal cavity cut open, and the common bile duct was ligated twice with 7-0 surgical silk. The mouse's peritoneum and the skin were closed with sutures, and the mice were transferred to a clean cage (e.g., resting cage) until recovered from anesthesia. Sham operated mice had their common bile duct exposed but not ligated.\nAnimals: Pathogen-free 6 weeks of age male C57BL/6J mice were obtained. The animals were maintained in a specific-pathogen free (SPF) facility under controlled conditions of temperature (e.g., 23±2° C.), humidity (e.g., 45±10%), lighting (e.g., 12-hour artificial light and dark cycles; light from 8:00 to 20:00) and air exchange. A high pressure was maintained in the experimental room to prevent contamination of the facility. The animals were housed in TPX cages with a maximum of 4 mice per cage. Sterilized Paper-Clean was used for bedding and replaced once a week. Sterilized solid normal diet was provided ad libitum, being placed in a metal lid on the top of the cage. Pure water was also provided ad libitum from a water bottle equipped with a rubber stopper and a sipper tube. Water bottles were replaced once a week, cleaned, and sterilized in an autoclave and reused. Mice were identified by ear punch and each cage was labeled with a specific identification code.\nAnimal Monitoring and Sacrifice: The viability, clinical signs and behavior for the mice were monitored daily. Individual body weight was measured daily before treatment during the treatment period. […] The animals were sacrificed at Day 14 after BDL surgery by exsanguination through direct cardiac puncture under isoflurane anesthesia."}, "[2]": {"conditions": "H/R, 1000 mg/Kg/d for 6 weeks, vs vehicle"}, "[3]": {"conditions": "H/R, 1000 mg/Kg/day for 6 weeks"}, "[4]": {"conditions": "50 mg/kg PO QD Day 0-13, Day 14, mean ± SD"}, "[5]": {"conditions": "250 mg/kg PO QD Day 0-13, Day 14, mean ± SD"}, "[6]": {"conditions": "DS102 50, 250, 500 mg/kg groups vs Vehicle group"}}, "note": "Like-named read-outs stand apart in the source and are kept apart here."}
{"compound": "CC/C=C\\C[C@H](O)/C=C/C=C\\C/C=C\\C/C=C\\CCCC(=O)OCC", "note": "[DS102, 15(S)-hydroxy-(5Z,8Z,11Z,13E,17Z)-eicosapentaenoic acid ethyl ester]", "values": [{"measurement": "spleen macrophage classic inflammatory markers (CD80, CD68)", "setting": "[1]; 1000 mg/Kg/day for 6 weeks, vs vehicle", "value": "significant reduction"}, {"measurement": "H/R induced increase in NLRP3, VCAM-1, ET-1 and TXAS-1 expression in kidney", "setting": "[1]; H/R, 1000 mg/Kg/d for 6 weeks", "value": "reduction"}, {"measurement": "NLRP3 inflammasome in lung tissue", "setting": "[1]; H/R, 1000 mg/Kg/d for 6 weeks", "value": "downregulation"}, {"measurement": "VCAM-1 in livers", "setting": "[1]; H/R, 1000 mg/Kg/d for 6 weeks", "value": "prevented the H/R induced up-regulation"}, {"measurement": "activation of NF-kB p65 and Nrf2 in liver", "setting": "[1]; H/R, 1000 mg/Kg/d for 6 weeks", "value": "reduced activation"}, {"measurement": "active forms of NF-kB p65 induced by H/R in lung", "setting": "[1]; H/R, 1000 mg/Kg/d for 6 weeks", "value": "significant decrease"}, {"measurement": "antioxidants NQO1 and HO-1 in liver", "setting": "[1]; H/R, 1000 mg/Kg/d for 6 weeks", "value": "downregulation"}, {"measurement": "expression of NLRP3 in livers", "setting": "[1]; H/R, 1000 mg/Kg/d for 6 weeks", "value": "lower expression"}, {"measurement": "liver protein oxidation", "setting": "[1]; H/R, 1000 mg/Kg/d for 6 weeks", "value": "marked reduction"}, {"measurement": "ET-1 in livers", "setting": "[1]; [2]", "value": "trend towards reduction"}, {"measurement": "H/R induced activation of NF-kB p65 in kidneys", "setting": "[1]; [2]", "value": "decreased"}, {"measurement": "H/R induced expression of VCAM-1 in isolated aorta", "setting": "[1]; [2]", "value": "significant reduction"}, {"measurement": "H/R-induced increases in creatinine and BUN plasma values", "setting": "[1]; [2]", "value": "reduction"}, {"measurement": "leukocyte infiltrates in kidneys (flow cytometry)", "setting": "[1]; [2]", "value": "significant reduction"}, {"measurement": "H/R-induced increase in neutrophil counts", "setting": "[1]; [3]", "value": "significantly reduced"}, {"measurement": "amount of sickled red blood cells", "setting": "[1]; [3]", "value": "decreased"}, {"measurement": "hematocrit (Hct) and hemoglobin (Hb)", "setting": "[1]; [3]", "value": "prevented the H/R induced reduction"}, {"measurement": "plasma C reactive protein (CRP) and pentraxin-2", "setting": "[1]; [3]", "value": "decreased"}, {"measurement": "spleen neutrophils", "setting": "[1]; H/R, 1000 mg/Kg/day for 6 weeks, vs vehicle", "value": "significant decrease"}, {"measurement": "lactate dehydrogenase (LDH)", "setting": "[1]; H/R, plasma, 1000 mg/Kg/day for 6 weeks", "value": "reduction"}, {"measurement": "tyrosine phosphorylation state of band 3", "setting": "[1]; H/R, red cell membrane, 1000 mg/Kg/day for 6 weeks", "value": "reduction"}, {"measurement": "clearance of damaged RBCs", "setting": "[1]; spleen macrophages, 1000 mg/Kg/day for 6 weeks, vs vehicle", "value": "trend towards reduction"}, {"measurement": "Body Weight", "setting": "BDL-operated mice; [4]", "value": "17.4 ± 2.9", "unit": "g"}, {"measurement": "Liver Weight", "setting": "BDL-operated mice; [4]", "value": "1392 ± 328", "unit": "mg"}, {"measurement": "Body Weight", "setting": "BDL-operated mice; [5]", "value": "17.0 ± 2.4", "unit": "g"}, {"measurement": "Liver Weight", "setting": "BDL-operated mice; [5]", "value": "1513 ± 182", "unit": "mg"}, {"measurement": "Body Weight", "setting": "BDL-operated mice; 500 mg/kg PO QD Day 0-13, Day 14, mean ± SD", "value": "16.4 ± 1.6", "unit": "g"}, {"measurement": "mean body weight at any day during the study period", "setting": "BDL-operated mice; [6]", "value": "no significant changes"}, {"measurement": "mean body weight on the day of sacrifice", "setting": "BDL-operated mice; [6]", "value": "no significant differences"}, {"measurement": "mice found dead before reaching Day 14", "setting": "BDL-operated mice; in the DS102 low, middle and high groups (50, 250, 500 mg/kg), Vehicle three out of 15", "value": "seven out of 15"}]}
